Source: patent publication US8440658B2, “Cyclic urea inhibitors of 11β-hydroxysteroid dehydrogenase 1” (Vitae Pharmaceuticals, Inc., priority 2007, dated 2013)

Target: T1, human 11β-HSD1 (Homo sapiens, UniProt P28845)
T1 construct: expressed in transfected cells; host or cells: CHO cells (microsomes)
Assay: Inhibition of microsomal preparation of 11β-HSD1 (SPA, [3H]cortisone to [3H]cortisol)
Format: biochemical
Conditions: for inhibition at 0.1 µM / Average % inhibition at 100 nM: compound at 100 nM; for IC50: microsomes from CHO cells overexpressing human 11β-HSD1, 160 nM [3H]cortisone, read-out: Biological Test Example 1 (IC50 class)
Protocol: The inhibition of microsomal preparation of 11β-HSD1 by compounds of the invention was measured essentially as previously described (K. Solly, S. S. Mundt, H. J. Zokian, G. J. Ding, A. Hermanowski-Vosatka, B. Strulovici, and W. Zheng, High-Throughput Screening of 11-Beta-Hydroxysteroid Dehydrogenase Type 1 in Scintillation Proximity Assay Format. Assay Drug Dev Technol 3 (2005) 377-384). All reactions were carried out at room temperature in 96 well clear flexible PET Microbeta plates (PerkinElmer). The assay begins by dispensing 49 μl of substrate solution (50 mM HEPES, pH 7.4, 100 mM KCl, 5 mM NaCl, 2 mM MgCl2, 2 mM NADPH and 160 nM [^3H]cortisone (1 Ci/mmol)) and mixing in 1 μL of the test compounds in DMSO previously diluted in half-log increments (8 points) starting at 0.1 mM. After a 10 minute pre-incubation, 50 μL of enzyme solution containing microsomes isolated from CHO cells overexpressing human 11β-HSD1 (10-20 μg/ml of total protein) was added, and the plates were incubated for 90 minutes at room temperature. The reaction was stopped by adding 50 μl of the SPA beads suspension containing 10 μM 18β-glycyrrhetinic acid, 5 mg/ml protein A coated YSi SPA beads (GE Healthcare) and 3.3 μg/ml of anti-cortisol antibody (East Coast Biologics) in Superblock buffer (Bio-Rad). The plates were shaken for 120 minutes at room temperature, and the SPA signal corresponding to [^3H]cortisol was measured on a Microbeta plate reader.

T1 sequence (P28845 whole entry): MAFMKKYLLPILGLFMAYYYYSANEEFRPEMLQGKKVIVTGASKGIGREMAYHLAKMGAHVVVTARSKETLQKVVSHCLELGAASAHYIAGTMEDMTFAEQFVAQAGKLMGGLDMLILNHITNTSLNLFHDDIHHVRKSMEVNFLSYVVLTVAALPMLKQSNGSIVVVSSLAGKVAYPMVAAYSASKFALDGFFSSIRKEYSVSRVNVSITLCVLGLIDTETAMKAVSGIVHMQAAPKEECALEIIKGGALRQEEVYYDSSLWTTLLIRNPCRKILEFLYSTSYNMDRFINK

| SMILES | inhibition at 0.1 µM [%] | IC50 [nM] | Average % inhibition at 100 nM (0.1 µM) [%] | Average % inhibition at 100 nM [%] |
| --- | --- | --- | --- | --- |
| C[C@H](N1CC[C@](CCC(N)=O)(c2ccc(F)cc2)OC1=O)C(C)(C)C [EXAMPLE 4, 3-((R)-3-((S)-3,3-dimethylbutan-2-yl)-6-(4-fluorophenyl)-2-oxo-1,3-oxazinan-6-yl)propanamide] | 91.8 | < 100 | – | – |
| CC(C)(C)N1CCC(CCCO)(c2ccc(F)cc2)OC1=O (single isomer, unassigned) [EXAMPLE 9 Isomer 1, 3-tert-butyl-6-(4-fluorophenyl)-6-(3-hydroxypropyl)-1,3-oxazinan-2-one] | – | < 100 | 74.7 | – |
| CC(C)(C)N1CCC(CCCO)(c2ccccc2)OC1=O (single isomer, unassigned) [EXAMPLE 8 Isomer 1, 3-tert-butyl-6-(3-hydroxypropyl)-6-phenyl-1,3-oxazinan-2-one] | – | < 100 | 84.0 | – |
| C[C@H](N1CC[C@](CCO)(c2ccc(F)cc2)OC1=O)C(C)(C)C (single isomer, unassigned; isomer 1) [EXAMPLE 1 Isomer 1] | – | < 100 | – | 94.4 |
| C=CCC1(c2ccccc2)CCN([C@@H](C)C(C)(C)O)C(=O)O1 (single isomer, unassigned) [EXAMPLE 12 Isomer 2] | – | < 100 | 53.9 | – |
| C[C@H](N1CC[C@](CCCNS(C)(=O)=O)(c2ccc(F)cc2)OC1=O)C(C)(C)C [EXAMPLE 6, N-(3-((R)-3-((S)-3,3-dimethylbutan-2-yl)-6-(4-fluorophenyl)-2-oxo-1,3-oxazinan-6-yl)propyl)methanesulfonamide] | 95.9 | < 100 | – | – |
| C[C@H](N1CC[C@](CCO)(c2ccc(F)cc2)NC1=O)C(C)(C)C [EXAMPLE 7, (S)-1-((S)-3,3-dimethylbutan-2-yl)-4-(4-fluorophenyl)-4-(2-hydroxyethyl)tetrahydropyrimidin-2(1H)-one] | 93.3 | < 100 | – | – |
| C[C@H](N1CC[C@](CCNS(C)(=O)=O)(c2ccc(F)cc2)OC1=O)C(C)(C)C [EXAMPLE 5, N-(2-((S)-3-((S)-3,3-dimethylbutan-2-yl)-6-(4-fluorophenyl)-2-oxo-1,3-oxazinan-6-yl)ethyl)methanesulfonamide] | 91 | < 100 | – | – |
| C[C@H](N1CCC(CCCO)(c2ccccc2)OC1=O)C(C)(C)O (single isomer, unassigned) [EXAMPLE 10 Isomer 1] | – | < 100 | 66.8 | – |
| C[C@H](N1CC[C@](CCCO)(c2ccccc2)OC1=O)C(C)(C)C [EXAMPLE 3 Isomer 1] | 94 | < 100 | – | – |
| C[C@H](N1CC[C@@](CCO)(c2ccc(F)cc2)OC1=O)C(C)(C)C (single isomer, unassigned; isomer 2) [EXAMPLE 1 Isomer 2] | – | < 100 | – | 36.5 |
| CC(C)(C)N1CCC(CCCO)(c2ccccc2)OC1=O (single isomer, unassigned) [EXAMPLE 8 Isomer 2, 3-tert-butyl-6-(3-hydroxypropyl)-6-phenyl-1,3-oxazinan-2-one] | – | > 100 | 22.1 | – |
| C[C@H](N1CC[C@](CCCO)(c2ccc(F)cc2)NC1=O)C(C)(C)C [EXAMPLE 11, (R)-1-((S)-3,3-dimethylbutan-2-yl)-4-(4-fluorophenyl)-4-(3-hydroxypropyl)tetrahydropyrimidin-2(1H)-one] | 97 | < 100 | – | – |
| CC(C)(C)N1CCC(CCCO)(c2ccc(F)cc2)OC1=O (single isomer, unassigned) [EXAMPLE 9 Isomer 2, 3-tert-butyl-6-(4-fluorophenyl)-6-(3-hydroxypropyl)-1,3-oxazinan-2-one] | – | > 100 | 25.45 | – |
| C=CCC1(c2ccccc2)CCN([C@@H](C)C(C)(C)O)C(=O)O1 (single isomer, unassigned) [EXAMPLE 12 Isomer 1] | 47.2 | > 100 | – | – |
| C[C@H](N1CC[C@@](CCCO)(c2ccccc2)OC1=O)C(C)(C)C [EXAMPLE 3 Isomer 2, (S)-3-((S)-3,3-dimethylbutan-2-yl)-6-(3-hydroxypropyl)-6-phenyl-1,3-oxazinan-2-one] | 58.8 | < 100 | – | – |
| C[C@H](N1CC[C@](CCCO)(c2ccc(F)cc2)OC1=O)C(C)(C)C [EXAMPLE 2] | 98.6 | < 100 | – | – |
| C[C@H](N1CCC(CCCO)(c2ccccc2)OC1=O)C(C)(C)O (single isomer, unassigned) [EXAMPLE 10 Isomer 2] | – | > 100 | 13.4 | – |
